Results reported in US9370535B2, “Method for treatment of advanced solid tumors” (BOEHRINGER INGELHEIM INTERNATIONAL GMBH, priority 2011, dated 2016).

Test system: patients with advanced and/or metastatic solid tumours
Assay: Clinical trial of Volasertib in combination with Cisplatin (arm A) or Carboplatin (arm B)
Assay type: in vivo
Conditions: for maximum tolerated dose for volasertib: single 2-hour infusion on day 1 every 3 weeks
Source text: Sequential cohorts of three to six patients (pts) received a single 2-hour infusion of Volasertib (V) in combination with Cisplatin (Cis) (arm A) or Carboplatin (Ca) (arm B), on day 1 every 3 weeks. Cis and Ca were given for up to six cycles (Cy), V was continued until disease progression or unacceptable toxicity.

Structure (SMILES): CC[C@@H]1C(=O)N(C)c2cnc(Nc3ccc(C(=O)N[C@H]4CC[C@H](N5CCN(CC6CC6)CC5)CC4)cc3OC)nc2N1C(C)C [Volasertib, N-[trans-4-[4-(cyclopropylmethyl)-1-piperazinyl]cyclohexyl]-4-[[(7R)-7-ethyl-5,6,7,8-tetrahydro-5-methyl-8-(1-methylethyl)-6-oxo-2-pteridinyl]amino]-3-methoxy-benzamide]
- partial responses (PR) observed (arm A (with Cisplatin), CHOP-resistant follicular dendritic reticulum cell sarcoma, dose levels A2, A4): two
- partial responses (PR) observed (arm A (with Cisplatin), pretreated lung cancer, dose level A5, PR yet to be confirmed): one
- partial responses (PR) observed (arm B (with Carboplatin), heavily-pretreated head and neck carcinoma, dose level B4): one
- partial responses (PR) observed (both arms together (combination with Cisplatin or Carboplatin), 46 patients): Four
- side effects (myelosuppression) on combination (human, in vivo): without potentiation of those side effects
- maximum tolerated dose for volasertib (in combination with carboplatin): ≥ 300 mg
- maximum tolerated dose for volasertib (in combination with cisplatin): ≥ 300 mg
